Assay results as given in US7348316B2, “Use of an anti-endotoxin drug in the prevention and treatment of disease” (Eisai R&D Management Co., Ltd., priority 2003, dated 2008).

Test system: endotoxin
Assay: administration of E5564 to humans / endotoxin challenge studies
Assay type: in vivo
Excerpt: We have discovered that administration of E5564 to humans in a single bolus or by intermittent infusion is effective at preventing the clinical effects of endotoxemia. […] Thus, we have discovered drug administration regimens involving single bolus or intermittent infusion, to prevent or treat endotoxemia and related conditions and disorders (e.g., sepsis) in humans.

CCCCCC/C=C\CCCCCCCCC[C@@H](O)N[C@H]1[C@H](OCC2O[C@H](OP(=O)(O)O)[C@H](NC(=O)CC(=O)CCCCCCCCCCC)[C@@H](OCCCCCCCCCC)[C@@H]2O)O[C@H](COC)[C@@H](OP(=O)(O)O)[C@@H]1OCC[C@@H](CCCCCCC)OC (stereo partly drawn) [Compound E5564, α-D-Glucopyranose, 3-O-decyl-2-deoxy-6-O-[2-deoxy-3-O-[(3R)-3-methoxydecyl)-6-O-methyl-2-[[(11Z)-1-oxo-11-octadecenyl)amino]-4-O-phosphono-β-D-glucopyranosyl]-2-[(1,3-dioxotetradecyl)amino]-,1-(dihydrogen phosphate)]
activity of the drug after cessation of administration (doses higher than the minimum dose found to be effective in endotoxin challenge studies): prolonged activity | preventing the clinical effects of endotoxemia (humans, single bolus or intermittent infusion): effective | activity of the drug upon cessation of administration (previous studies): decreases rapidly | clearance from circulation upon cessation of administration (previous studies): not cleared from circulation
